Experimental data published in patent US4605744A, “Imidazole derivatives” (Hoffmann-La Roche Inc., priority 1985, dated 1986).
Converted amounts (≈) assume the structure as drawn. Like-named read-outs stand apart in the source and are kept apart here.

Experiments:
[1] = system: S. pyogenes 4; assay: In vivo antibacterial activity (PD50); conditions: Streptococcus pyogenes, 4, sc, sc, read-out: PD50
[2] = system: S. faecalis C1; assay: In vivo antibacterial activity (PD50); conditions: sc
Experimental: (§2) The results in these Tables and the PD50 's were determined by the procedure set forth on page 160 in Beskid et al., Antimicrobial Agents and Chemotherapy, Vol. 20, No. 2 pp. 159-167 (Aug. 1981) for "in vivo studies".

[3] = system: P. rettgeri ATCC 9250; assay: In vitro antibacterial activity (MIC); format: cell-based; conditions: Providencia rettgeri, ATCC9250
Method in brief: (§1)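 Twofold-style dilution series (128 to 0.008 μg/ml) made in Mueller-Hinton broth, dispensed, then inoculated with 1.5 μl of a 10^-2 overnight-culture dilution. Plates sealed, held overnight at 37° C, inspected with a viewer.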

[4] = system: S. pneumoniae 6302; assay: In vitro antibacterial activity (MIC); format: cell-based
Method in brief: as §1

[5] = system: P. mirabilis 90; assay: In vitro antibacterial activity (MIC); format: cell-based
Method in brief: as §1

[6] = system: S. pneumoniae SC; assay: In vitro antibacterial activity (MIC); format: cell-based
Method in brief: as §1

[7] = system: K. pneumoniae 5096; assay: In vitro antibacterial activity (MIC); format: cell-based
Method in brief: as §1

[8] = system: E. coli R-563; assay: In vitro antibacterial activity (MIC); format: cell-based; conditions: Escherichia coli, R563
Method in brief: as §1

[9] = system: S. pneumoniae 6301; assay: In vitro antibacterial activity (MIC); format: cell-based
Method in brief: as §1

[10] = system: P. mirabilis 190; assay: In vitro antibacterial activity (MIC); format: cell-based; conditions: Proteus mirabilis, 190
Method in brief: as §1

[11] = system: P. aeruginosa 503-56; assay: In vitro antibacterial activity (MIC); format: cell-based
Method in brief: as §1

[12] = system: S. pyogenes 4; assay: In vitro antibacterial activity (MIC); format: cell-based
Method in brief: as §1

[13] = system: E. cloacae 24; assay: In vitro antibacterial activity (MIC); format: cell-based; conditions: Enterobacter cloacae, 24
Method in brief: as §1

[14] = system: S. marcescens S3; assay: In vitro antibacterial activity (MIC); format: cell-based; conditions: Serratia marcescens
Method in brief: as §1

[15] = system: C. freundii CDC6; assay: In vitro antibacterial activity (MIC); format: cell-based; conditions: Citrobacter freundii, CDC6
Method in brief: as §1

[16] = system: P. aeruginosa 8710; assay: In vitro antibacterial activity (MIC); format: cell-based
Method in brief: as §1

[17] = system: E. aerogenes 8; assay: In vivo antibacterial activity (PD50)
Experimental: as §2

[18] = system: P. aeruginosa 503-56; assay: In vivo antibacterial activity (PD50); conditions: Pseudomonas aeruginosa, 50356, sc
[19] = system: E. coli 257; assay: In vivo antibacterial activity (PD50); conditions: Escherichia coli, 257, sc
[20] = system: E. cloacae 6951; assay: In vivo antibacterial activity (PD50); conditions: Enterobacter cloacae, 6951, sc, 2 treatments
Experimental: as §2

[21] = system: E. coli 257; assay: In vitro antibacterial activity (MIC, Mueller-Hinton broth); format: cell-based; conditions: Escherichia coli, 257
Experimental: Drug dilutions are prepared in Mueller-Hinton broth ranging from 128 to 0.008 μg/ml. The diluted agents are dispensed in 100 μl amounts into the wells of a 96-well tray and used immediately or frozen at -10° to -70° C. until needed. Using an automated inoculator, 1.5 μl of a 10^-2 dilution of an overnight culture is added to each well of the tray. The tops of the trays are then sealed using transparent tape and incubated overnight at 37° C. The trays are examined with the aid of a viewer. The lowest concentration at which no growth is observed is considered to be the minimum inhibitory concentration (MIC).

[22] = system: P. aeruginosa 8710; assay: In vivo antibacterial activity (PD50); conditions: Pseudomonas aeruginosa, 8710, sc, 2 treatments
Experimental: as §2

[23] = challenge 100 LD50s, 2 treatments, Table 10

Structure (SMILES): CC1(C)S[C@@H]2[C@H](/N=C/N3CCCCCC3)C(=O)N2[C@H]1C(=O)O [Amdinocillin, amdinocillin, reference compound]
- ED50 ([1]; Table 9): 60 mg/kg
- ED50 ([1]; challenge 3.3 LD50s, 2 treatments, Table 11): 11 mg/kg
- ED50 [1, 23]: 8.1 mg/kg
- ED50 ([2]; Enterococcus faecalis, C1, Table 9): > 250 mg/kg
- PD50 ([2]; challenge 10 LD50s, 1 treatment, Table 11): > 250 mg/kg
- MIC [3]: 0.125 µg/mL (≈ 0.384 µM)
- MIC ([4]; S. pneumoniae 6302): 2 µg/mL (≈ 6.15 µM)
- MIC ([4]; Streptococcus pneumoniae, 6302, S. pneumoniae 6302, read-out: MIC): 4 µg/mL (≈ 12.3 µM)
- MIC ([5]; P. mirabilis 90): 0.5 µg/mL (≈ 1.54 µM)
- MIC ([5]; Proteus mirabilis, 90, P. mirabilis 90, read-out: MIC): 0.25 µg/mL (≈ 0.768 µM)
- MIC [6]: 1 µg/mL (≈ 3.07 µM)
- MIC ([6]; Streptococcus pneumoniae, read-out: MIC): 2 µg/mL (≈ 6.15 µM)
- MIC ([7]; Klebsiella pneumoniae, 5096, K. pneumoniae 5096): 128 µg/mL (≈ 393 µM)
- MIC ([7]; Klebsiella pneumoniae, K. pneumoniae 5096, read-out: MIC): 32 µg/mL (≈ 98.3 µM)
- MIC [8]: 0.125 µg/mL (≈ 0.384 µM)
- MIC ([9]; S. pneumoniae 6301): 1 µg/mL (≈ 3.07 µM)
- MIC ([9]; Streptococcus pneumoniae, 6301, S. pneumoniae 6301, read-out: MIC): 2 µg/mL (≈ 6.15 µM)
- MIC [10]: 0.125 µg/mL (≈ 0.384 µM)
- MIC ([11]; P. aeruginosa 503-56): 128 µg/mL (≈ 393 µM)
- MIC ([11]; Pseudomonas aeruginosa, 50356, P. aeruginosa 503-56): > 128 µg/mL
- MIC ([12]; S. pyogenes 4): 2 µg/mL (≈ 6.15 µM)
- MIC ([12]; Streptococcus pyogenes, 4, S. pyogenes 4, read-out: MIC): 1 µg/mL (≈ 3.07 µM)
- MIC [13]: 0.125 µg/mL (≈ 0.384 µM)
- MIC ([14]; S3, S. marcescens S3): 0.125 µg/mL (≈ 0.384 µM)
- MIC ([14]; S. marcescens S3, read-out: MIC): 0.062 µg/mL (≈ 0.191 µM)
- MIC [15]: 0.125 µg/mL (≈ 0.384 µM)
- MIC ([16]; P. aeruginosa 8710): 128 µg/mL (≈ 393 µM)
- MIC ([16]; Pseudomonas aeruginosa, 8710, P. aeruginosa 8710): > 128 µg/mL
- ED50 ([17]; Klebsiella aerogenes, 8, sc, read-out: PD50, sc, challenge 10 LD50s, 2 treatments, Table 11): 167 mg/kg
- ED50 ([17]; Klebsiella aerogenes, 8, sc, Table 9, read-out: PD50): > 250 mg/kg
- ED50 ([18]; Table 9): > 250 mg/kg
- ED50 ([18]; challenge 4.7 LD50s, 2 treatments, Table 10): > 250 mg/kg
- ED50 ([18]; challenge 50 LD50s, 2 treatments, Table 11): > 250 mg/kg
- ED50 [18, 23]: > 250 mg/kg
- ED50 ([19]; Table 9): < 0.025 mg/kg
- ED50 ([19]; challenge >10^4 LD50s, 1 treatment, Table 10): < 1 mg/kg
- ED50 ([19]; challenge >10^4 LD50s, 1 treatment, Table 11): < 2 mg/kg
- ED50 ([20]; challenge 562 LD50s, Table 10): 18 mg/kg
- ED50 ([20]; challenge 3162 LD50s, Table 11): 2.5 mg/kg
- MIC [21]: 0.125 µg/mL (≈ 0.384 µM)
- ED50 ([22]; challenge 10 LD50s, Table 10, read-out: PD50): > 250 mg/kg
- ED50 ([22]; challenge 562 LD50s, Table 10, read-out: PD50): > 250 mg/kg
- ED50 ([22]; challenge >10^4 LD50s, Table 11, read-out: PD50): > 250 mg/kg
